In PMC11599599, “Synthesis, characterization, molecular docking, pharmacokinetics, and molecular dynamics of new bis-thiazoles based on bis-thiosemicarbazone as anti-coxsackievirus” (Scientific Reports, 2024):

Experiments:
[1] = system: Cox B virus; assay: Plaque reduction assay against Cox B virus; format: cell-based; details: for inhibition at 20 µg/mL / inhibition at 40 µg/mL: Vero
Protocol: (§1) Compounds: 10 mg were dissolved in 1 mL (10% DMSO and 90% deionized water), sterilized by 1% antibiotic–antimycotic mixture and stored in −20.
(§2) Cells: Vero cell line was used. The cells were propagated in DMEM medium (Lonza, USA) supplemented with 10% fetal bovine serum (Gibco, USA), 1% antibiotic–antimycotic mixture (Lonza, USA).
Virus: Cox B virus was propagated and titrated to give final count of 0.9 × 10^5 viral particle/mL.
This test was done according to Tebas et al.[47], In a 12-well plate Vero cells (10^5 cells/mL) were cultivated for 1 day at 37 °C. The Cox B virus was mixed with the safe concentration of the compound and incubated for 1 h at 37 °C before being added to the cells. Following the removal of the growth media, the cells were injected with virus-extract combinations ([…]) and then rinsed with PBS (Phosphate Buffer Saline). Following a one-hour contact period for virus adsorption, the cell monolayer was supplemented with one milliliter of Dulbecco’s Modified Eagles Media (DMEM) containing 2% agarose. The plates were then allowed to solidify and incubated at 37 °C until the development of viral plaques. Formalin (10%) was added for 2 h then plates were stained with crystal violet. Control wells were included where untreated virus was incubated with Vero cells and finally plaques were counted and percentage reduction in plaques formation in comparison to control wells was recorded as following:
% inhibition = (viral count(untreated) - viral count(treated))/viral count(untreated)X100.

[2] = system: Vero cells; assay: Cytotoxicity assay on Vero cells (microscopic morphology); format: cell-based; design: key to Cytotoxicity on Vero cells (cell sheet affected): -: Safe concentration; + 1, +2, + 3, +4: about 25, 50, 75, 100% of cell sheet was affected respectively; + 1, +2, + 3, +4: about 25, 50, 75, 100% of cell sheet was affected respectively; + 1, +2, + 3, +4: about 25, 50, 75, 100% of cell sheet was affected respectively; + 1, +2, + 3, +4: about 25, 50, 75, 100% of cell sheet was affected respectively; M: masked (color of compounds made cells unseen); details: for Cytotoxicity on Vero cells (cell sheet affected): 24 h, morphological changes; for Safety effect on Vero cells (in words): Table 1, 24 h
Protocol: as §1, §2
Cytotoxic effect of compounds was measured by inoculation different doses of compounds on tested cells then examining them microscopically after 24 h to determine any morphological changes that appeared on cells as a result of being subjected to the compounds[46]. Vero cells were seeded onto 96-well plates, which were then incubated for the whole night. After a 24-hour incubation period at 37 °C in a humidified incubator with 5% CO2, compounds were injected at concentrations of 10, 20, 30, 40, 50, 60, 70, 80, 90, and 100 µg /100 µl. Any morphological changes were monitored under a microscope.

| Structure (SMILES) | Viral count (treated) ([1]; 20 ug/mL) | Viral count (treated) ([1]; 40 ug/mL) | inhibition at 20 µg/mL [1] | inhibition at 40 µg/mL [1] | Cytotoxicity on Vero cells (cell sheet affected) ([2]; 10 µg/100µl) | Cytotoxicity on Vero cells (cell sheet affected) ([2]; 20 µg/100µl) | Cytotoxicity on Vero cells (cell sheet affected) ([2]; 40 µg/100µl) | Cytotoxicity on Vero cells (cell sheet affected) ([2]; 50 µg/100µl) | Cytotoxicity on Vero cells (cell sheet affected) ([2]; 60 µg/100µl) | Cytotoxicity on Vero cells (cell sheet affected) ([2]; 70 µg/100µl) | Cytotoxicity on Vero cells (cell sheet affected) ([2]; 80 µg/100µl) | Cytotoxicity on Vero cells (cell sheet affected) ([2]; 90 µg/100µl) | Cytotoxicity on Vero cells (cell sheet affected) ([2]; 100 µg/100µl) | Safety effect on Vero cells (in words) [2] | Cytotoxicity on Vero cells (cell sheet affected) ([2]; 30 µg/100µl) |
| --- | --- | --- | --- | --- | --- | --- | --- | --- | --- | --- | --- | --- | --- | --- | --- |
| COc1ccc(OC)c(C=C2/C(=N/Nc3nc(C)c(C(C)=O)s3)c3ccccc3/C2=N\Nc2nc(C)c(C(C)=O)s2)c1 [11a, 1,1’-((((1E,3E)−2-(2,5-dimethoxybenzylidene)−1H-indene-1,3(2H)-diylidene)bis(hydrazin-1-yl-2-ylidene))bis(4-methylthiazole-2,5-diyl))bis(ethan-1-one)] | 1.44 × 10^7 | 0.68 × 10^7 | 10% | 57% | - | - | M | M | M | M | M | M | M | dense and coloured that made masking to the cell sheet |  |
| CCOC(=O)c1sc(N/N=C2/C(=Cc3cc(OC)ccc3OC)/C(=N/Nc3nc(C)c(C(=O)OCC)s3)c3ccccc32)nc1C [11b, Diethyl 2,2’-(((1E,3E)−2-(2,5-dimethoxybenzylidene)−1H-indene-1,3(2H)-diylidene)bis-(hydrazin-1-yl-2-ylidene))bis(4-methylthiazole-5-carboxylate)] | 0.8 × 10^7 | 0.96 × 10^7 | 50% | 40% | - | - | - | - | M | M | M | M | M | dense and coloured that made masking to the cell sheet | - |
| COc1ccc(OC)c(C=C2/C(=N/Nc3nc(C)cs3)c3ccccc3/C2=N\Nc2nc(C)cs2)c1 [11c, 2,2’-(((1E,3E)−2-(2,5-dimethoxybenzylidene)−1H-indene-1,3(2H)-diylidene)bis(hydrazin-1-yl-2-ylidene))bis(4-methylthiazole)] | 0.84 × 10^7 | 0.57 × 10^7 | 47% | 64% | - | - | - | - | - | - | - | M | M | dense and coloured that made masking to the cell sheet | - |
| COc1ccc(OC)c(C=C2C(=O)c3ccccc3C2=O)c1 [compound 1, 2-(2,5-dimethoxy-benzylidene)indan-1,3-dione] | 1.42 × 10^7 | 1.6 × 10^7 | 11% | 0% | - | - | - | - | - | - | - | - | - | higher safety | - |
